# Measurements: article PMC8068801, “Novel Benzenesulfonate Scaffolds with a High Anticancer Activity and G2/M Cell Cycle Arrest” (Cancers, 2021)
# What was measured:
# [1] = system: K562 cells; assay: Immunoblotting with densitometry, K562; type: cell-based, human; settings: 24 h; for PARP/Reference 89 kDa, densitometric intensity ratio / caspase-9/Reference 37-35 kDa, densitometric intensity ratio: control 0.167; for AIF/Reference 67 kDa, densitometric intensity ratio / BID/Reference 22 kDa, densitometric intensity ratio / PARP/Reference 116 kDa, densitometric intensity ratio / caspase-9/Reference 47 kDa, densitometric intensity ratio / cdc2/Reference 34 kDa, densitometric intensity ratio / cyclin E1/Reference 48 kDa, densitometric intensity ratio: control 1.000
# Experimental: The K562 and U-251 cells were seeded in 3 cm Petri dishes (Nunc) at a density of 500,000 cells per well and incubated overnight. […] Next, the cell pellets were resuspended in an RIPA buffer containing a Halt Protease Inhibitor Cocktail and a Halt Phosphatase Inhibitor Cocktail along with 0.5 M EDTA (all from Thermo Scientific, Waltham, MA, USA) and lysed on ice for 20 min. Then, the obtained lysates were sonicated and centrifuged at 10,000 rpm for 10 min at 4 °C. The supernatants were collected for further analysis. The protein concentration was measured using a Micro BCA™ Protein Assay Kit (Thermo Scientific) according to the manufacturer’s instructions. Equal amounts of the proteins (16 μg) were electrophoresed on SDS-Page gels and transferred onto nitrocellulose membranes. The membranes were blocked in 5% non-fat milk prepared in TPBS (PBS containing 0.1% Tween-20) for 1 h. After blocking, the membranes were incubated with the specific primary antibodies (all from Cell Signaling) at a 1:1000 dilution—cyclin E, cdc2, PARP, AIF, BID, p53, p21^Waf1/Cip1, HIF-1α, cathepsin B and caspase-9—and at a 1:2000 dilution for the reference proteins—vinculin, β-actin and GAPDH—overnight at 4 °C. The next day, the membranes were washed in TPBS and incubated with horseradish peroxidase (HRP)-conjugated secondary antibodies for 1 h at room temperature. Lastly, the membranes were washed in TPBS and incubated with a SuperSignal™ West Pico Chemiluminescent Substrate (Thermo Scientific). The chemiluminescence signals were captured using a ChemiDoc™ XRS + System (Biorad). The experiments were performed at least four to five times. The densitometric analysis was conducted using ImageJ software (Wayne Rasband, National Institutes of Health, Bethesda, MD, USA).
# The band intensity of tested proteins (p53, cyclin E1, cdc2, p21, HIF-1α, cathepsin b, PARP, caspase-9, BID, AIF) were analyzed by densitometry readings/intensity ratio, using ImageJ software (NIH) and were normalized to the corresponding reference proteins (GAPDH, vinculin or β-actin) value.
# The densitometric readings/intensity ratio data from four/five independent experiments (compared to control): […]
# p53/ Refer- p21/ Refer- cdc2/ Refer- Cyclin E1/ HIF-1α/ Cathepsin b/Reference ence ence ence Reference Reference
# PARP/Reference BID/ Reference Caspase-9/Reference […]
# cdc2/ Reference cyclin E1/ Reference AIF/ Reference BID/ Reference
# [2] = system: U-251 cells; assay: MTS cytotoxicity assay, U-251; type: cell-based, human; settings: for IC50: Homo sapiens, U-251, 72 h incubation, MTS; for Selectivity index, U-251: NHDF vs U-251
# Text: (§1) M. Rusin from the Maria Sklodowska-Curie Memorial Cancer Centre and Institute of Oncology in Gliwice, Poland. […] G. Kramer-Marek from the Institute of Cancer Research in London, United Kingdom. The human suspension chronic myelogenous leukemia cell line K562 and pancreas ductal adenocarcinoma cell line PANC-1 were purchased from Sigma-Aldrich (St. Louis, MO, USA), while the normal human dermal fibroblasts cell line NHDF were purchased from PromoCell. […] Each medium contained a combination of two antibiotics: penicillin and streptomycin (1% v/v; Gibco). All of these cell lines were grown under standard conditions at 37 °C with a 5% CO2 humidified atmosphere. Moreover, all of the cell lines were routinely tested for mycoplasma using the PCR technique with specific Mycoplasma primers to confirm that there was no contamination.
# (§2) The assay was performed following a 72 h incubation with the various concentrations of the tested compounds. Then, 100 µL DMEM without phenol red with 20 µL of the CellTiter 96®AQueous One Solution-MTS (Promega, Promega, WI, USA) was added to each well and incubated for 1 h or 3 h (PANC-1) at 37 °C. The optical densities of the samples were measured at 490 nm using a multi-plate reader (Synergy 4, BioTek, Winooski, VT, USA). […] Each individual compound was tested in triplicate in a single experiment with each experiment being performed three or four times.
# [3] = system: HCT 116 p53^+/+ cells; assay: MTS cytotoxicity assay, HCT 116 p53+/+; type: cell-based, human; settings: for IC50: Homo sapiens, HCT 116 p53^+/+, 72 h incubation, MTS; for Selectivity index, HCT 116 p53+/+: NHDF vs HCT 116 p53+/+
# Text: as §1, §2
# [4] = system: MCF-7 cells; assay: MTS cytotoxicity assay, MCF-7; type: cell-based, human; settings: for IC50: Homo sapiens, MCF7, MCF-7, 72 h incubation, MTS; for Selectivity index, MCF-7: NHDF vs MCF-7
# Text: as §1, §2
# [5] = system: NHDF cells; assay: MTS cytotoxicity assay, normal fibroblasts NHDF; type: cell-based; settings: NHDF normal human fibroblasts, 72 h incubation
# Text: as §1, §2
# [6] = system: U-251 cells; assay: Cell cycle assay (Muse Cell-Cycle Kit), U-251; type: cell-based, human; settings: 24 h
# Experimental: The K562, U-251 and NHDF cells were seeded in 3 cm Petri dishes (Nunc) at a density of 250,000 cells per well and incubated under standard conditions at 37 °C for 24 h. […] After a 24 h treatment, the assays were performed using a Muse Cell-Cycle Kit (Millipore, Burlington, MA, USA) according to the supplier’s instructions. Briefly, the cells were collected, washed with cold PBS and centrifuged at 300 g for 5 min. Afterwards, the cells were fixed in ice cold 70% ethanol and stored at −20 °C overnight. The next day, the cells were washed with cold PBS, centrifuged and resuspended in 200 μL of the Muse™ Cell Cycle Reagent. The samples were incubated for 30 min at room temperature in the dark. After staining, the cellular subpopulation values in the individual cell cycle phases were estimated using a cell cycle analysis using a Muse Cell Analyzer (Millipore). The experiments were performed at least four times.
Structure (SMILES),"PARP/Reference 89 kDa, densitometric intensity ratio ([1]; K562, 0.35µM)","caspase-9/Reference 37-35 kDa, densitometric intensity ratio ([1]; K562, 0.35µM)","AIF/Reference 67 kDa, densitometric intensity ratio ([1]; K562, 0.35µM)","BID/Reference 22 kDa, densitometric intensity ratio ([1]; K562, 0.35µM)","PARP/Reference 116 kDa, densitometric intensity ratio ([1]; K562, 0.35µM)","caspase-9/Reference 47 kDa, densitometric intensity ratio ([1]; K562, 0.35µM)","cdc2/Reference 34 kDa, densitometric intensity ratio ([1]; K562, 0.35µM)","cyclin E1/Reference 48 kDa, densitometric intensity ratio ([1]; K562, 0.35µM)","PARP/Reference 89 kDa, densitometric intensity ratio ([1]; K562, 0.5µM)","caspase-9/Reference 37-35 kDa, densitometric intensity ratio ([1]; K562, 0.5µM)","AIF/Reference 67 kDa, densitometric intensity ratio ([1]; K562, 0.5µM)","BID/Reference 22 kDa, densitometric intensity ratio ([1]; K562, 0.5µM)","PARP/Reference 116 kDa, densitometric intensity ratio ([1]; K562, 0.5µM)",IC50 [2],"Selectivity index, U-251 [2]",IC50 [3],"Selectivity index, HCT 116 p53+/+ [3]",IC50 [4],"Selectivity index, MCF-7 [4]",IC50 [5],also measured
"COc1ccccc1/C=C/c1nc(OS(=O)(=O)c2ccc3c(c2)OCO3)c2ccccc2n1 [BS1, 2-((E)-2-(2-methoxyphenyl)ethenyl)quinazolin-4-yl 1,3-benzodioxole-5-sulfonate]",2.111,1.287,3.809,1.049,1.793,1.109,1.234,1.273,2.156,1.368,2.737,0.695,1.646,1900 ± 649 nM,6.61,880 ± 86 nM,14.25,8320 ± 1940 nM,1.51,12500 ± 855 nM,"Cleavage caspase-9 proteins (Western blot) ([1]; K562, 0.35 µM): more than six-fold increase; caspase-9/Reference 47 kDa, densitometric intensity ratio ([1]; K562, 0.5µM): 1.627; cdc2/Reference 34 kDa, densitometric intensity ratio ([1]; K562, 0.5µM): 1.122; cyclin E1/Reference 48 kDa, densitometric intensity ratio ([1]; K562, 0.5µM): 1.110; Cells in G2/M phase, mean ± SD ([6]; U-251, 4 µM): 85.40%; Cells in G0/G1 phase, mean ± SD ([6]; U-251, 6 μM): 1.52%; Cells in G2/M phase, mean ± SD ([6]; U-251, 6 μM): 90.68%; Cells in S phase, mean ± SD ([6]; U-251, 6 μM): 1.52%"
"COc1ccccc1/C=C/c1nc(OS(=O)(=O)c2cc3c(cc2Br)OCO3)c2ccccc2n1 [BS2, 2-((E)-2-(2-methoxyphenyl)ethenyl)quinazolin-4-yl 6-bromo-1,3-benzodioxole-5-sulfonate]",0.494,1.268,4.141,0.965,1.556,1.108,1.338,1.640,0.811,1.113,4.160,0.762,1.665,2300 ± 234 nM,6.80,1200 ± 132 nM,13.06,16800 ± 2060 nM,0.93,15700 ± 1410 nM,"caspase-9/Reference 47 kDa, densitometric intensity ratio ([1]; K562, 0.5µM): 1.104; cdc2/Reference 34 kDa, densitometric intensity ratio ([1]; K562, 0.5µM): 1.206; cyclin E1/Reference 48 kDa, densitometric intensity ratio ([1]; K562, 0.5µM): 1.270"
"COc1ccccc1/C=C/c1nc(OS(=O)(=O)c2ccc(C)cc2)c2ccccc2n1 [BS4, 2-((E)-2-(2-methoxyphenyl)ethenyl)quinazolin-4-yl 4-methylbenzenesulfonate]",–,–,–,–,–,–,–,–,–,–,–,–,–,1910 ± 214 nM,13.11,1570 ± 357 nM,15.95,9130 ± 2050 nM,2.74,> 25000 nM,"Increase in the fraction of cells in the G2/M phase compared to the control ([6]; U-251, 4 µM): ~23.1%; Increase in the fraction of cells in the G2/M phase compared to the control ([6]; U-251, 6 μM): about 40.92%"
